Measurements published in patent publication US6632831B2, “Branched chain amino acid-dependent aminotransferase inhibitors and their use in the treatment of neurodegenerative diseases” (Pfizer Inc., priority 2001, dated 2003).
Values joined by “and” are separate entries in the source; they are usually repeats but may differ in a detail not shown here. Identical values can stand only once.

The compounds below were run against T1, human Branched Chain Amino Acid Aminotransferase cytosolic form (hBCATc) (Homo sapiens, UniProt P54687) (assay: In vitro coupled enzyme assay, hBCATc). Conditions: 37° C., 25 mM phosphate buffer pH 7.8; coupled glutamate dehydrogenase assay; read-out: hBCATc I50.
T1 construct: inferred from purification on a Ni-charged chelating column with imidazole elution; made in house; host or cells: E. coli BL21(DE3)
T1 sequence (P54687 1-386): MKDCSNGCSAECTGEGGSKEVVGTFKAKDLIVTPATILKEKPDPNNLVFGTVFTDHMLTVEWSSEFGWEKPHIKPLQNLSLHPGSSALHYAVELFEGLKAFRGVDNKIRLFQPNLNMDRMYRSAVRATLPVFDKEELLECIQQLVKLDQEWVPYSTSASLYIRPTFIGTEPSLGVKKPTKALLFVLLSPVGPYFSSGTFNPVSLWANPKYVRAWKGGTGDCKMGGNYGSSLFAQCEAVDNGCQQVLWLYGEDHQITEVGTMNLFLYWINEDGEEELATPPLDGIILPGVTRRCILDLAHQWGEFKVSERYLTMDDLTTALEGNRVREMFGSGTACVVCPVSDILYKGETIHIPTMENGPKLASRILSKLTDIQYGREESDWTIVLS
Type: biochemical
Protocol: In vitro enzyme assay—human Branched Chain Amino Acid Aminotransferase cytosolic form (hBCATc) and mitochondrial form (hBCATm) were assayed at 37° C. in 25 mM phosphate buffer pH 7.8. In addition, 2 mM DTT and 12.5 mM EDTA were added to the assay mixture. A coupling enzyme assay was used to monitor the production of glutamate. The formation of NADH from NAD+at […] was followed on a 96-well plate Molecular Devices plate reader. The following components were used in this coupled assay: 4 mM ADP, 1 mM NAD+, 750 μM L-Leucine, 500 μM (α-ketoglutarate, 10 μM pyridoxal phosphate, 1 unit glutamate dehydrogenase, and 1.25 μg of the appropriate BCAT enzyme. Inhibitions by compounds were assayed by adding various concentrations to this coupled assay procedure as a DMSO stock up to a 5% v/v DMSO/buffer ratio. Data is shown in Table 1.
Enzyme Preparation—humanBCATc was expressed in BL21(DE3) cells. A growing culture of cells was induced with 1 mM IPTG at room temperature overnight. These cells were harvested by centrifugation at 10,000 g for 20 minutes. The supernatant was discarded, and the cells were stored at −80° C. until needed. The protein was purified by the following method. The cell paste was resuspended in extraction buffer (0.1 M phosphate, pH 8.0, with 0.01 M Tris-HCL and 5 mM TCEP and then lysed on a French Press at 1000 psi. The lysate was centrifuged at 10,000 g for 15 minutes, and the pellet was discarded. The supernatant was loaded onto a Hitrap Chelating column previously charged with 0.1 M NiSO4 and washed with 3 to 4 column volumes of extraction buffer. The column was then washed with 0.01 Tris, pH 7.5, 10% glycerol, 150 mM NaCl, 5 mM TCEP for two column volumes. The column was then further washed with two column volumes of 0.1 M phosphate, pH 6.0, 0.01 M Tris, 10% glycerol and 750 mM NaCl. Finally, the column was washed with two column volumes of the same buffer plus 50 mM imidazole. The BCAT enzyme was then eluted with the same buffer but with 350 mM imidazole. The eluant was then dialyzed overnight against 10 mM phosphate buffer pH 8.0, 10% glycerol, and 5 mM TCEP. The dialyzed protein was then loaded onto a Q-sepharose column and eluted using a salt gradient. Active fractions were collected and further purified on a Superose-12 column to yield pure BCAT protein.

Row | Compound | IC50
1 | O=C(/C=C1\SC(Nc2c(Cl)cccc2Cl)=NC1=O)NCCCN1CCCC1 [Example 19, 2-[2-(2,6-Dichloro-phenylamino)-4-oxo-4H-thiazol-5-ylidene]-N-(3-pyrrolidin-1-yl-propyl)-acetamide] | 55 µM
2 | CCNC(=O)/C=C1\SC(Nc2c(Cl)cccc2Cl)=NC1=O [Example 7, [2-(2,6-Dichloro-phenylamino)-4-oxo-4H-thiazol-5-ylidene]-N-ethyl-acetamide] | 13.1 µM and 3.15 µM
3 | CN1CCC(N(C)C(=O)/C=C2\SC(Nc3c(Cl)cccc3Cl)=NC2=O)C1 (stereo not shown) [Example 32, 2-[2-(2,6-Dichloro-phenylamino)-4-oxo-4H-thiazol-5-ylidene]-N-methyl-N-(1-methyl-pyrrolidin-3-yl)-acetamide] | 89.8 µM
4 | CNCCCCCCCCN(C)C(=O)/C=C1\SC(Nc2c(Cl)cccc2Cl)=NC1=O [Example 34, 2-[2-(2,6-Dichloro-phenylamino)-4-oxo-4H-thiazol-5-ylidene]-N-methyl-N-(8-methylamino-octyl)-acetamide] | 75.6 µM
5 | CCN1CCN(C(=O)/C=C2\SC(Nc3c(Cl)cccc3Cl)=NC2=O)CC1 [Example 18, 2-(2,6-Dichloro-phenylamino)-5-[2-(4-ethyl-piperazin-1-yl)-2-oxo-ethylidene)-thiazol-4-one] | 64.1 µM
6 | COCCNC(=O)/C=C1\SC(Nc2c(Cl)cccc2Cl)=NC1=O [Example 16, 2-[2-(2,6-Dichloro-phenylamino)-4-oxo-4H-thiazol-5-ylidene]-N-(2-methoxy-ethyl)-acetamide] | 82.7 µM
7 | CN(C)C1CCN(C(=O)/C=C2\SC(Nc3c(Cl)cccc3Cl)=NC2=O)C1 (stereo not shown) [Example 25, 2-(2,6-Dichloro-phenylamino)-5-[2-(3-dimethylamino-pyrrolidin-1-yl)-2-oxo-ethylidene)-thiazol-4-one] | 65.1 µM
8 | O=C(/C=C1\SC(Nc2c(Cl)cccc2Cl)=NC1=O)NCC(O)CO (stereo not shown) [Example 28, 2-[2-(2,6-Dichloro-phenylamino)-4-oxo-4H-thiazol-5-ylidene]-N-(2,3-dihydroxy-propyl)-acetamide] | 66.9 µM
9 | COC(=O)/C=C1\SC(Nc2ccccc2C)=NC1=O [Example 4, [2-(2-Methyl-phenylamino)-4-oxo-4H-thiazol-5-ylidene]-acetic Acid Methyl Ester] | 43.9 µM and 29.6 µM
10 | CC(C)NC(=O)/C=C1\SC(Nc2c(Cl)cccc2Cl)=NC1=O [Example 20, 2-[2-(2,6-Dichloro-phenylamino)-4-oxo-4H-thiazol-5-ylidene]-N-isopropyl-acetamide] | 65.9 µM
11 | CNC(=O)/C=C1\SC(Nc2c(Cl)cccc2Cl)=NC1=O [Example 6, [2-(2,6-Dichloro-phenylamino)-4-oxo-4H-thiazol-5-ylidene]-N-methyl-acetamide] | 3.1 µM and 1.9 µM
12 | CCCNC(=O)/C=C1\SC(Nc2c(Cl)cccc2Cl)=NC1=O [Example 8, [2-(2,6-Dichloro-phenylamino)-4-oxo-4H-thiazol-5-ylidene]-N-propyl-acetamide] | 35.7 µM and 17.4 µM
13 | O=C(/C=C1\SC(Nc2c(Cl)cccc2Cl)=NC1=O)NCCOCCO [Example 26, 2-[2-(2,6-Dichloro-phenylamino)-4-oxo-4H-thiazol-5-ylidene]-N-[2-(2-hydroxy-ethoxy)-ethyl]-acetamide] | 56.3 µM

Further lines, results first:

Row | IC50 | Compound
14 | 4.1 µM | COC(=O)/C=C1\SC(Nc2c(Cl)cccc2Cl)=NC1=O [Example 1, [2-(2,6-Dichloro-phenylamino)-4-oxo-4H-thiazol-5-ylidene]-acetic Acid Methyl Ester]
15 | 11.2 µM | CCCN(CC1CC1)C(=O)/C=C1\SC(Nc2c(Cl)cccc2Cl)=NC1=O [Example 31, N-Cyclopropylmethyl-2-[2-(2,6-dichloro-phenylamino)-4-oxo-4H-thiazol-5-ylidene]-N-propyl-acetamide]
16 | 16.6 µM | O=C(/C=C1\SC(Nc2c(Cl)cccc2Cl)=NC1=O)NC1CCCC1 [Example 30, N-Cyclopentyl-2-[2-(2,6-dichloro-phenylamino)-4-oxo-4H-thiazol-5-ylidene]-acetamide]
17 | 13.8 µM | O=C1N=C(Nc2c(Cl)cccc2Cl)S/C1=C\C(=O)N1CCCC1 [Example 21, 2-(2,6-Dichloro-phenylamino)-5-(2-oxo-2-pyrrolidin-1-yl-ethylidene)-thiazol-4-one]
18 | 39.8 µM | COC(CNC(=O)/C=C1\SC(Nc2c(Cl)cccc2Cl)=NC1=O)OC [Example 23, 2-[2-(2,6-Dichloro-phenylamino)-4-oxo-4H-thiazol-5-ylidene]-N-(2,2-dimethoxy-ethyl)-acetamide]
19 | 22.6 µM | O=C(/C=C1\SC(Nc2c(Cl)cccc2Cl)=NC1=O)NC1CCCCC1 [Example 22, N-Cyclohexyl-2-[2-(2,6-dichloro-phenylamino)-4-oxo-4H-thiazol-5-ylidene]-acetamide]
20 | 31.7 µM | CONC(=O)/C=C1\SC(Nc2c(Cl)cccc2Cl)=NC1=O [Example 10, [2-(2,6-Dichloro-phenylamino)-4-oxo-4H-thiazol-5-ylidene]-N-methoxy-acetamide]
21 | 12.8 µM | O=C1N=C(Nc2c(Cl)cccc2Cl)S/C1=C\C(=O)N1CCCCC1 [Example 17, 2-(2,6-Dichloro-phenylamino)-5-(2-oxo-2-piperidine-1-yl-ethylidene)-thiazol-4-one]
22 | 52.5 µM | CCOC(=O)/C=C1\SC(Nc2c(Cl)cccc2Cl)=NC1=O [Example 2, [2-(2,6-Dichloro-phenylamino)-4-oxo-4H-thiazol-5-ylidene]-acetic Acid Ethyl Ester]
23 | 31.1 µM | C=C(C)CNC(=O)/C=C1\SC(Nc2c(Cl)cccc2Cl)=NC1=O [Example 29, 2-[2-(2,6-Dichloro-phenylamino)-4-oxo-4H-thiazol-5-ylidene]-N-(2-methyl-allyl)-acetamide]
24 | 8.97 µM | CC1CC(C)CN(C(=O)/C=C2\SC(Nc3c(Cl)cccc3Cl)=NC2=O)C1 (stereo not shown) [Example 24, 2-(2,6-Dichloro-phenylamino)-5-[2-(3,5-dimethyl-piperidin-1-yl)-2-oxo-ethylidene)-thiazol-4-one]
25 | 40.4 µM | O=C(/C=C1\SC(Nc2c(Cl)cccc2Cl)=NC1=O)NCCOc1ccccc1 [Example 33, 2-[2-(2,6-Dichloro-phenylamino)-4-oxo-4H-thiazol-5-ylidene]-N-(2-phenoxy-ethyl)-acetamide]
26 | 41.2 µM | CSCCCNC(=O)/C=C1\SC(Nc2c(Cl)cccc2Cl)=NC1=O [Example 27, 2-[2-(2,6-Dichloro-phenylamino)-4-oxo-4H-thiazol-5-ylidene]-N-(3-methylsulfanyl-propyl)-acetamide]

Same assay, conditions: @ 20 μM compound; 37° C., pH 7.8 coupled assay

Row | hBCATc Inhibit % @ 20 μM | Compound
27 | Inhibit 29% @ 20 μM | N-(1-Benzyl-pyrrolidin-3-yl)-2-[2-(2,6-dichloro-phenylamino)-4-oxo-4H-thiazol-5-ylidene]-N-methyl-acetamide [Example 36]

Same assay, conditions: @ 20 μM compound; 37° C., pH 7.8 coupled assay; read-out: hBCATc Inhibit % @ 20 μM

Row | inhibition at 20 µM [%] | Compound
28 | 33 | CC(C)CC(C)NC(=O)/C=C1\SC(Nc2c(Cl)cccc2Cl)=NC1=O (stereo not shown) [Example 38, 2-[2-(2,6-Dichloro-phenylamino)-4-oxo-4H-thiazol-5-ylidene]-N-(1 ,3-dimethyl-butyl)-acetamide]
29 | 130 | O=C(/C=C1\SC(Nc2c(Cl)cccc2Cl)=NC1=O)NCc1ccc(Cl)cc1 [Example 35, N-(4-Chloro-benzyl)-2-[2-(2,6-dichloro-phenylamino)-4-oxo-4H-thiazol-5-ylidene]-acetamide]
30 | 34 | CC(C)CCC(C)NC(=O)/C=C1\SC(Nc2c(Cl)cccc2Cl)=NC1=O (stereo not shown) [Example 37, 2-[2-(2,6-Dichloro-phenylamino)-4-oxo-4H-thiazol-5-ylidene]-N-(1,4-dimethyl-pentyl)-acetamide]
31 | 39 | O=C(/C=C1\SC(Nc2c(Cl)cccc2Cl)=NC1=O)NC1CCCCCC1 [Example 39, N-Cycloheptyl-2-[2-(2,6-dichloro-phenylamino)-4-oxo-4H-thiazol-5-ylidene]-acetamide]
